The values that follow come from patent US9278990B2, “Substituted nucleotide analogs” (priority 2010, dated 2016).

Molecules are shown by their SMILES.

This experiment concerns Huh-7 cells containing the self-replicating, subgenomic HCV replicon. Kind of experiment: HCV replicon assay (luciferase reporter). To be noted: Hepatitis C virus, Huh-7, 72 h. It is filed as cell-based. As for the experimental part:
Huh-7 cells containing the self-replicating, subgenomic HCV replicon with a stable luciferase (LUC) reporter were cultured in Dulbecco's modified Eagle's medium (DMEM) containing 2 mM L-glutamine and supplemented with 10% heat-inactivated fetal bovine serum (FBS), 1% penicillin-streptomyocin, 1% nonessential amino acids, and 0.5 mg/mL G418.
On the first day, 5,000 HCV replicon cells were plated per well in a 96-well plate. On the following day, test compounds were solubilized in 100% DMSO to 100× the desired final testing concentration. Each compound was then serially diluted (1:3) up to 9 different concentrations. Compounds in 100% DMSO are reduced to 10% DMSO by diluting 1:10 in cell culture media. The compounds were diluted to 10% DMSO with cell culture media, which were used to dose the HCV replicon cells in 96-well format. The final DMSO concentration was 1%. The HCV replicon cells were incubated at 37° C. for 72 hours. At 72 hours, cells were processed when the cells are still subconfluent. Compounds that reduce the LUC signal are determined by Bright-Glo Luciferase Assay (Promega, Madison, Wis.). Percent Inhibition was determined for each compound concentration in relation to the control cells (untreated HCV replicon) to calculate the EC50.
A general note: In antiviral work, replicon cells carry a viral genome segment that copies itself.
Regarding `COC(=O)[C@H](C)NP(=S)(OC[C@H]1O[C@@H](n2ccc(=O)[nH]c2=O)[C@](C)(O)[C@@H]1O)Oc1cccc2ccccc12` (some centres unmarked), the EC50 (usually the concentration giving half of the maximal effect) is under 1 µM. With `CC(C)OC(=O)[C@H](C)NP(=S)(OC[C@H]1O[C@@H](n2ccc(=O)[nH]c2=O)[C@](C)(F)[C@@H]1O)Oc1ccccc1` (some centres unmarked) the figure was 1 to 10 µM; with `C[C@H](NP(=S)(OC[C@H]1O[C@@H](n2ccc(=O)[nH]c2=O)[C@](C)(F)[C@@H]1O)Oc1ccccc1)C(=O)OC1CCCCC1` (some centres unmarked), under 1 µM; with `C[C@H](NP(=S)(OC[C@H]1O[C@@H](n2ccc(=O)[nH]c2=O)[C@](C)(F)[C@@H]1O)Oc1ccccc1)C(=O)OCC(C)(C)C` (some centres unmarked), under 1 µM. Turning to `C[C@H](NP(=S)(OC[C@H]1O[C@@H](n2ccc(=O)[nH]c2=O)[C@](C)(O)[C@@H]1O)Oc1ccccc1)C(=O)OCC(C)(C)C` (some centres unmarked), the EC50 is under 1 µM.

`C[C@H](NP(=S)(OC[C@H]1O[C@@H](n2ccc(=O)[nH]c2=O)[C@](C)(O)[C@@H]1O)Oc1ccccc1)C(=O)OC1CCCCC1` (some centres unmarked): the EC50 is under 1 µM.

Take `CC(C)OC(=O)[C@H](C)NP(=S)(OC[C@H]1O[C@@H](n2ccc(=O)[nH]c2=O)[C@](C)(O)[C@@H]1O)Oc1cccc2ccccc12` (some centres unmarked): the half-maximal effective concentration (EC50) was under 1 µM. The compound `C[C@H](NP(=S)(OC[C@H]1O[C@@H](n2ccc(=O)[nH]c2=O)[C@](C)(O)[C@@H]1O)Oc1cccc2ccccc12)C(=O)OC1CCCCC1` (some centres unmarked) had an EC50 of under 1 µM. Compound `C[C@H](NP(=S)(OC[C@H]1O[C@@H](n2ccc(=O)[nH]c2=O)[C@](C)(O)[C@@H]1O)Oc1cccc2ccccc12)C(=O)OCC(C)(C)C` (some centres unmarked) registered an EC50 of under 1 µM. The figure for `CC(C)OC(=O)[C@H](C)N[P@@](=S)(OC[C@H]1O[C@@H](n2ccc(=O)[nH]c2=O)[C@](C)(O)[C@@H]1O)Oc1ccccc1` is under 1 µM.

The compound `CC(C)OC(=O)[C@H](C)N[P@](=S)(OC[C@H]1O[C@@H](n2ccc(=O)[nH]c2=O)[C@](C)(O)[C@@H]1O)Oc1ccccc1` returned an EC50 of under 1 µM.

Compound `[2H]C([2H])(OP(=S)(N[C@@H](C)C(=O)OC(C)C)Oc1ccccc1)[C@H]1O[C@@H](n2ccc(=O)[nH]c2=O)[C@](C)(O)[C@@H]1O` (some centres unmarked) yielded an EC50 of under 1 µM. Turning to `CC(C)OC(=O)[C@@H](NP(=S)(OC[C@H]1O[C@@H](n2ccc(=O)[nH]c2=O)[C@](C)(O)[C@@H]1O)Oc1ccccc1)C(C)C` (some centres unmarked), the EC50 lay within 10 to 100 µM.

Regarding `CC(C)C[C@H](NP(=S)(OC[C@H]1O[C@@H](n2ccc(=O)[nH]c2=O)[C@](C)(O)[C@@H]1O)Oc1ccccc1)C(=O)OC(C)C` (some centres unmarked), the EC50 was 1 to 10 µM. On to `C[C@H](NP(=S)(OC[C@H]1O[C@@H](n2cnc3c(=O)[nH]c(N)nc32)[C@](C)(O)[C@@H]1O)Oc1ccccc1)C(=O)OCC(C)(C)C` (some centres unmarked), for which the EC50 is under 1 µM.

Regarding `C[C@H](NP(=S)(OC[C@H]1O[C@@H](n2cnc3c(=O)[nH]c(N)nc32)[C@](C)(F)[C@@H]1O)Oc1ccccc1)C(=O)OCC(C)(C)C` (some centres unmarked), the EC50 was under 1 µM. In the case of `CC(C)OC(=O)[C@H](C)NP(=S)(OC[C@H]1O[C@@H](n2cnc3c(=O)[nH]c(N)nc32)[C@](C)(O)[C@@H]1O)Oc1ccccc1` (some centres unmarked), the EC50 is under 1 µM. `C[C@H](NP(=S)(OC[C@H]1O[C@@H](n2cnc3c(=O)[nH]c(N)nc32)[C@](C)(O)[C@@H]1O)Oc1ccccc1)C(=O)OC1CCCCC1` (some centres unmarked) had an EC50 of under 1 µM. For the compound `COc1nc(N)nc2c1ncn2[C@@H]1O[C@H](COP(=S)(N[C@@H](C)C(=O)OC(C)C)Oc2ccccc2)[C@@H](O)[C@@]1(C)F` (some centres unmarked), the EC50 is under 1 µM. `COc1nc(N)nc2c1ncn2[C@@H]1O[C@H](COP(=S)(N[C@@H](C)C(=O)OC(C)C)Oc2ccccc2)[C@@H](O)[C@@]1(C)O` (some centres unmarked) yielded a 50% effective concentration (EC50) of under 1 µM. The figure for `COc1nc(N)nc2c1ncn2[C@@H]1O[C@H](COP(=S)(N[C@@H](C)C(=O)OCC(C)(C)C)Oc2ccccc2)[C@@H](O)[C@@]1(C)O` (some centres unmarked) is under 1 µM; for `COc1nc(N)nc2c1ncn2[C@@H]1O[C@H](COP(=S)(N[C@@H](C)C(=O)OC2CCCCC2)Oc2ccccc2)[C@@H](O)[C@@]1(C)O` (some centres unmarked) it is under 1 µM. In turn, `COc1nc(N)nc2c1ncn2[C@@H]1O[C@H](COP(=S)(N[C@@H](C)C(=O)OCC(C)(C)C)Oc2cccc3ccccc23)[C@@H](O)[C@@]1(C)O` (some centres unmarked) had an EC50 of under 1 µM.

`COc1nc(N)nc2c1ncn2[C@@H]1O[C@H](COP(=S)(N[C@@H](C)C(=O)OC2CCCCC2)Oc2cccc3ccccc23)[C@@H](O)[C@@]1(C)O` (some centres unmarked) gave an EC50 of under 1 µM. `CC(C)OC(=O)[C@H](C)NP(=S)(OC[C@H]1O[C@@H](n2cnc3c(NC4CC4)nc(N)nc32)[C@](C)(O)[C@@H]1O)Oc1ccccc1` (some centres unmarked) showed an EC50 of under 1 µM. For the compound `CC(C)OC(=O)[C@H](C)NP(=S)(OC[C@H]1O[C@@H](n2cnc3c(N)nc(N)nc32)[C@](C)(O)[C@@H]1O)Oc1ccccc1` (some centres unmarked), the EC50 was under 1 µM. Take `C=CCNc1nc(N)nc2c1ncn2[C@@H]1O[C@H](COP(=S)(N[C@@H](C)C(=O)OC(C)C)Oc2ccccc2)[C@@H](O)[C@@]1(C)O` (some centres unmarked): the 50% effective concentration (EC50) is under 1 µM. The compound `CC(C)OC(=O)[C@H](C)NP(=S)(OC[C@H]1O[C@@H](n2cnc3c(Cl)nc(N)nc32)[C@](C)(O)[C@@H]1O)Oc1ccccc1` (some centres unmarked) showed an EC50 of under 1 µM. As for `C[C@H](NP(=S)(OC[C@H]1O[C@@H](n2cnc3c(N)ncnc32)[C@](C)(O)[C@@H]1O)Oc1ccccc1)C(=O)OCC(C)(C)C` (some centres unmarked), the EC50 was under 1 µM.

The compound `CC(C)OC(=O)[C@H](C)NP(=S)(OC[C@H]1O[C@@H](n2cnc3c(N)ncnc32)[C@](C)(O)[C@@H]1O)Oc1cccc2ccccc12` (some centres unmarked) displayed an EC50 of under 1 µM.

`CC(C)OC(=O)[C@H](C)NP(=S)(OC[C@@]1(N=[N+]=[N-])O[C@@H](n2ccc(=O)[nH]c2=O)[C@H](O)[C@@H]1O)Oc1ccccc1` (some centres unmarked) gave an EC50 of 10 to 100 µM. For `C[C@H](NP(=S)(OC[C@@]1(N=[N+]=[N-])O[C@@H](n2ccc(=O)[nH]c2=O)[C@H](O)[C@@H]1O)Oc1ccccc1)C(=O)OCC(C)(C)C` (some centres unmarked), the EC50 lay in the range of 10 to 100 µM.

`CC(C)OC(=O)[C@H](C)NP(=S)(OC[C@H]1O[C@@H](n2ccc(=O)[nH]c2=O)[C@](C)(O)[C@@H]1O)Oc1ccc(F)cc1` (some centres unmarked) returned an EC50 of under 1 µM.

`COc1nc(N)nc2c1ncn2[C@@H]1O[C@H](COP(=S)(NC(C)C(=O)OC(C)C)Oc2ccccc2)C(O)C1(C)O` (some centres unmarked) had a concentration giving a half-maximal response (EC50) of under 1 µM. The figure for `COc1nc(N)nc2c1ncn2[C@@H]1O[C@H](COP(=S)(NC(C)C(=O)OC(C)C)Oc2ccccc2)C(O)C1(C)F` (some centres unmarked) is under 1 µM.

Turning to `CC(C)OC(=O)C(C)NP(=S)(OC[C@@]1(N=[N+]=[N-])O[C@@H](n2ccc(=O)[nH]c2=O)[C@H](O)[C@@H]1O)Oc1ccccc1` (some centres unmarked), the EC50 was 10 to 100 µM.

Compound `CCC(=O)O[C@@H]1[C@@H](COP(=S)(N[C@@H](C)C(=O)OC(C)C)Oc2ccccc2)O[C@@H](n2ccc(=O)[nH]c2=O)[C@]1(C)OC(=O)CC` (some centres unmarked) displayed an EC50 of under 1 µM. `CCC(=O)O[C@@H]1[C@@H](COP(=S)(N[C@@H](C)C(=O)OC(C)C)Oc2ccccc2)O[C@@H](n2ccc(=O)[nH]c2=O)[C@]1(C)O` (some centres unmarked) showed a half-maximal effective concentration (EC50) of under 1 µM. Consider `CC(C)OC(=O)[C@H](C)NP(=S)(OC[C@H]1O[C@@H](n2ccc(=O)[nH]c2=O)[C@](C)(OC(=O)C(C)C)[C@@H]1OC(=O)C(C)C)Oc1ccccc1` (some centres unmarked), for which the EC50 is under 1 µM.

`[2H]C([2H])(OP(=S)(N[C@@H](C)C(=O)OC(C)C)Oc1ccccc1)[C@H]1O[C@@H](n2ccc(=O)[nH]c2=O)[C@](C)(O)[C@@H]1OC(C)=O` (some centres unmarked) showed an EC50 of under 1 µM. Compound `CC(C)OC(=O)[C@H](C)NP(=S)(OC[C@H]1O[C@@H](n2ccc(=O)[nH]c2=O)[C@](C)(O)[C@@H]1OC(=O)C(C)C)Oc1ccccc1` (some centres unmarked) registered an EC50 of under 1 µM.
